For orientation: inhibition means the change of the read-out against control, counted positive when it falls.

Activity calls are given as the source filed them. No rule for the calls is given here.

The results in this text go back to PubChem BioAssay AID743371 (Vanderbilt Specialized Chemistry Center, 2014).

This test deals with D(4) dopamine receptor (Homo sapiens) (UniProt P21917). Kind of test: dopamine D4 receptor antagonists (AID 743371). Conditions: D4 receptor antagonist assay; at 10 µM; stronger effect = higher value.

Regarding `Cc1ccc(NC(=O)N2CCOC(CCc3ccccc3)C2)cc1` (stereo not given), the inhibition is 12% (inactive).
On to `Fc1ccc(CN2CCOC(CCc3ccccc3)C2)cc1` (stereo not given), for which the inhibition is 88%.
Then `FC(F)(F)Oc1ccc(CN2CCOC(CCc3ccccc3)C2)cc1` (stereo not given), with 94%; and `CC(C)(C)c1ccc(S(=O)(=O)N2CCOC(CCc3ccccc3)C2)cc1` (stereo not given), with 5% (inactive); and `O=C(c1ccc2ccccc2n1)N1CCOC(CCc2ccccc2)C1` (stereo not given), with -1% (inactive).
With `COc1ccc(CN2CCO[C@H](CCc3ccccc3)C2)cc1` the figure was 86%; with `Clc1ccc(CN2CCO[C@H](CCc3ccccc3)C2)cc1`, 96%.
Then `Clc1ccc(CN2CCO[C@@H](CCc3ccccc3)C2)cc1`, with 39% (inactive); and `O=C(Nc1ccccc1Cl)N1CCOC(CCc2ccccc2)C1` (stereo not given), with 2% (inactive); and `FC(F)(F)Oc1ccc(CN2CCO[C@@H](CCc3ccccc3)C2)cc1`, with 25% (inactive).
As to `O=S(=O)(c1ccccc1Cl)N1CCOC(CCc2ccccc2)C1` (stereo not given), the inhibition was 13% (inactive).
With `O=C(c1ccc2c(c1)OCCO2)N1CCOC(CCc2ccccc2)C1` (stereo not given) the figure was -4% (inactive); with `O=C(c1ccno1)N1CCOC(CCc2ccccc2)C1` (stereo not given), -14% (inactive).
Then `O=C(c1ccc(Cl)cc1)N1CCOC(CCc2ccccc2)C1` (stereo not given), with 7% (inactive).
With `Cc1ccc(C(=O)N2CCOC(CCc3ccccc3)C2)cc1` (stereo not given), the inhibition was 17% (inactive).
Then `COc1ccc(CN2CCOC(CCc3ccccc3)C2)cc1` (stereo not given), with 98%; and `O=C(c1cccc(F)c1)N1CCOC(CCc2ccccc2)C1` (stereo not given), with 1% (inactive).
Turning to `FC(F)(F)Oc1ccc(CN2CCO[C@H](CCc3ccccc3)C2)cc1`, the inhibition is 96%.
With `O=C(Nc1ccc(Cl)cc1)N1CCOC(CCc2ccccc2)C1` (stereo not given) the figure was 16% (inactive).
With `O=C(Nc1ccccc1F)N1CCOC(CCc2ccccc2)C1` (stereo not given), the inhibition is 4% (inactive).
On to `O=C(Nc1ccc(F)cc1)N1CCOC(CCc2ccccc2)C1` (stereo not given), for which the inhibition was 5% (inactive).
For the compound `c1ccc(CCC2CN(Cc3ccncc3)CCO2)cc1` (stereo not given), the inhibition was 13% (inactive).
With `Cc1ccccc1CN1CCOC(CCc2ccccc2)C1` (stereo not given) the figure was 54%.
With `c1ccc(CCC2CN(Cc3ccccc3)CCO2)cc1` (stereo not given) the figure was 74%; with `Cc1cc(C)c(C(=O)N2CCOC(CCc3ccccc3)C2)c(C)c1` (stereo not given), -8% (inactive); with `Cc1ccccc1NC(=O)N1CCOC(CCc2ccccc2)C1` (stereo not given), 15% (inactive).
Turning to `Cn1c(N2CCOC(CCc3ccccc3)C2)nc2ccccc21` (stereo not given), the inhibition is 17% (inactive).
With `O=C(c1cc(F)c(F)c(F)c1)N1CCOC(CCc2ccccc2)C1` (stereo not given) the figure was 10% (inactive).
With `O=S(=O)(c1cccc(F)c1)N1CCOC(CCc2ccccc2)C1` (stereo not given) the figure was 13% (inactive).
With `COc1ccc(NC(=O)N2CCOC(CCc3ccccc3)C2)cc1` (stereo not given) the figure was -2% (inactive); with `c1ccc(CCC2CN(Cc3cccnc3)CCO2)cc1` (stereo not given), 35% (inactive).
On to `Clc1ccc(CN2CCOC(CCc3ccccc3)C2)cc1` (stereo not given), for which the inhibition is 97%.
As for `O=C(c1ccccc1)N1CCOC(CCc2ccccc2)C1` (stereo not given), the inhibition was 5% (inactive).
With `O=C(c1cccnc1)N1CCOC(CCc2ccccc2)C1` (stereo not given) the figure was 18% (inactive); with `O=S(=O)(c1ccc2ccccc2c1)N1CCOC(CCc2ccccc2)C1` (stereo not given), -3% (inactive).
Then `Fc1cccc(F)c1CN1CCOC(CCc2ccccc2)C1` (stereo not given), with 51%; and `O=C(Nc1ccccc1)N1CCOC(CCc2ccccc2)C1` (stereo not given), with 3% (inactive).
Then `c1ccc(CCC2CN(c3ccc4ncccc4c3)CCO2)cc1` (stereo not given), with 16% (inactive).
On to `FC(F)(F)Oc1cccc(CN2CCOC(CCc3ccccc3)C2)c1` (stereo not given), for which the inhibition is 88%.
Then `O=S(=O)(c1ccccc1OC(F)(F)F)N1CCOC(CCc2ccccc2)C1` (stereo not given), with 6% (inactive); and `O=C(Nc1cccc(F)c1)N1CCOC(CCc2ccccc2)C1` (stereo not given), with -11% (inactive).
Then `O=S(=O)(c1ccccc1)N1CCOC(CCc2ccccc2)C1` (stereo not given), with 2% (inactive); and `COc1ccc(C(=O)N2CCOC(CCc3ccccc3)C2)cc1` (stereo not given), with -5% (inactive); and `c1ccc(CCC2CN(Cc3ccccn3)CCO2)cc1` (stereo not given), with 23% (inactive).
Then `COc1ccc(CN2CCO[C@@H](CCc3ccccc3)C2)cc1`, with 44% (inactive); and `O=S(=O)(c1ccc(F)cc1)N1CCOC(CCc2ccccc2)C1` (stereo not given), with -8% (inactive).
`c1ccc(CCC2CN(c3ccccc3)CCO2)cc1` (stereo not given): the inhibition is 5% (inactive).
With `Cc1cccc(S(=O)(=O)N2CCOC(CCc3ccccc3)C2)c1` (stereo not given) the figure was 13% (inactive); with `Cc1ccc(N2CCOC(CCc3ccccc3)C2)cc1` (stereo not given), 6% (inactive).
Then `O=S(=O)(c1ccccc1F)N1CCOC(CCc2ccccc2)C1` (stereo not given), with 9% (inactive).
